Experimental data from ChEMBL document CHEMBL1201862, “PubChem BioAssay data set” (2004).
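All cell lines were grown in 96-well plates and treated with compound for 48 hours. GI50 marks 50% less growth.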 The source made the active and inactive calls. No stated cut-off is given here; in the data, active = GI50 up to about 1.1 µM and inactive = higher.

Key:
Assay in all cases: growth of human tumour cells (NCI), 48 h
786-0 = system: 786-0
A498 = system: A498
A549 = system: A549
ACHN = system: ACHN
CAKI-1 = system: CAKI-1
CCRF-CEM = system: CCRF-CEM
COLO 205 = system: COLO 205
DLD-1 = system: DLD-1
DMS-114 = system: DMS-114
DMS-273 = system: DMS-273
EKVX = system: EKVX
HCC 2998 = system: HCC 2998
HCT-116 = system: HCT-116
HCT-15 = system: HCT-15
HL-60 = system: HL-60
HOP-18 = system: HOP-18
HOP-62 = system: HOP-62
HOP-92 = system: HOP-92
HT-29 = system: HT-29
IGROV-1 = system: IGROV-1
K562 = system: K562
KM-20L2 = system: KM-20L2
KM12 = system: KM12
LOX IMVI = system: LOX IMVI
LXFL 529 = system: LXFL 529
M14 = system: M14
M19-MEL = system: M19-MEL
MOLT-4 = system: MOLT-4
Malme-3M = system: Malme-3M
NCI-H226 = system: NCI-H226
NCI-H23 = system: NCI-H23
NCI-H460 = system: NCI-H460
NCI-H522 = system: NCI-H522
OVCAR-3 = system: OVCAR-3
OVCAR-4 = system: OVCAR-4
OVCAR-5 = system: OVCAR-5
OVCAR-8 = system: OVCAR-8
RPMI-8226 = system: RPMI-8226
RXF 393 = system: RXF 393
SF-268 = system: SF-268
SF-295 = system: SF-295
SF-539 = system: SF-539
SK-MEL-28 = system: SK-MEL-28
SK-MEL-5 = system: SK-MEL-5
SK-OV-3 = system: SK-OV-3
SN12C = system: SN12C
SNB-19 = system: SNB-19
SNB-75 = system: SNB-75
SNB-78 = system: SNB-78
SR = system: SR
SW-620 = system: SW-620
TK-10 = system: TK-10
U-251 = system: U-251
UACC-257 = system: UACC-257
UACC-62 = system: UACC-62
UO-31 = system: UO-31
SK-MEL-2 = system: SK-MEL-2
XF498 = system: XF498

O=C(O)c1cc2c3ccccc3nc-2c[nH]1
GI50 (786-0): > 100 µM (inactive) | GI50 (A498): 10 µM (inactive) | GI50 (A549): > 100 µM (inactive) | GI50 (ACHN): > 100 µM (inactive) | GI50 (CAKI-1): > 100 µM (inactive) | GI50 (CCRF-CEM): > 100 µM (inactive) | GI50 (COLO 205): > 100 µM (inactive) | GI50 (DLD-1): > 100 µM (inactive) | GI50 (DMS-114): > 100 µM (inactive) | GI50 (DMS-273): > 100 µM (inactive) | GI50 (EKVX): > 100 µM (inactive) | GI50 (HCC 2998): > 100 µM (inactive) | GI50 (HCT-116): > 100 µM (inactive) | GI50 (HCT-15): > 100 µM | GI50 (HL-60): > 100 µM (inactive) | GI50 (HOP-18): > 100 µM (inactive) | GI50 (HOP-62): > 100 µM (inactive) | GI50 (HOP-92): > 100 µM (inactive) | GI50 (HT-29): > 100 µM (inactive) | GI50 (IGROV-1): > 100 µM (inactive) | GI50 (K562): > 100 µM (inactive) | GI50 (KM-20L2): > 100 µM (inactive) | GI50 (KM12): > 100 µM (inactive) | GI50 (LOX IMVI): > 100 µM (inactive) | GI50 (LXFL 529): > 100 µM (inactive) | GI50 (M14): > 100 µM (inactive) | GI50 (M19-MEL): > 100 µM (inactive) | GI50 (MOLT-4): > 100 µM (inactive) | GI50 (Malme-3M): > 100 µM (inactive) | GI50 (NCI-H226): > 100 µM (inactive) | GI50 (NCI-H23): > 100 µM (inactive) | GI50 (NCI-H460): > 100 µM (inactive) | GI50 (NCI-H522): > 100 µM (inactive) | GI50 (OVCAR-3): > 100 µM (inactive) | GI50 (OVCAR-4): > 100 µM (inactive) | GI50 (OVCAR-5): > 100 µM (inactive) | GI50 (OVCAR-8): > 100 µM (inactive) | GI50 (RPMI-8226): > 100 µM (inactive) | GI50 (RXF 393): > 100 µM (inactive) | GI50 (SF-268): > 100 µM (inactive) | GI50 (SF-295): > 100 µM (inactive) | GI50 (SF-539): > 100 µM (inactive) | GI50 (SK-MEL-28): > 100 µM (inactive) | GI50 (SK-MEL-5): > 100 µM (inactive) | GI50 (SK-OV-3): > 100 µM (inactive) | GI50 (SN12C): > 100 µM (inactive) | GI50 (SNB-19): > 100 µM (inactive) | GI50 (SNB-75): > 100 µM (inactive) | GI50 (SNB-78): > 100 µM (inactive) | GI50 (SR): > 100 µM (inactive) | GI50 (SW-620): > 100 µM (inactive) | GI50 (TK-10): > 100 µM (inactive) | GI50 (U-251): > 100 µM (inactive) | GI50 (UACC-257): > 100 µM (inactive) | GI50 (UACC-62): > 100 µM (inactive) | GI50 (UO-31): > 100 µM (inactive)

C=C1CCC2[C@@H](CCC3[C@]2(C)CCC[C@]3(C)C(=O)OC)C1CC=O (stereo partly specified)
GI50 (786-0): 18.1 µM (inactive) | GI50 (ACHN): 15.9 µM (inactive) | GI50 (CCRF-CEM): 14 µM (inactive) | GI50 (COLO 205): 18.5 µM (inactive) | GI50 (DLD-1): 21.6 µM (inactive) | GI50 (DMS-114): 17.5 µM (inactive) | GI50 (DMS-273): 20.9 µM (inactive) | GI50 (EKVX): 20.1 µM (inactive) | GI50 (HCT-116): 15.2 µM (inactive) | GI50 (HCT-15): 19.9 µM | GI50 (HL-60): 15.6 µM (inactive) | GI50 (HOP-18): 15.6 µM (inactive) | GI50 (HOP-92): 14.6 µM (inactive) | GI50 (HT-29): 16.6 µM (inactive) | GI50 (IGROV-1): 20.2 µM (inactive) | GI50 (KM-20L2): 18.8 µM (inactive) | GI50 (LXFL 529): 16 µM (inactive) | GI50 (M14): 16.5 µM (inactive) | GI50 (M19-MEL): 18.2 µM (inactive) | GI50 (Malme-3M): 19.1 µM (inactive) | GI50 (NCI-H226): 17.9 µM (inactive) | GI50 (NCI-H23): 18.6 µM (inactive) | GI50 (NCI-H460): 15.3 µM (inactive) | GI50 (OVCAR-3): 14.2 µM (inactive) | GI50 (OVCAR-4): 17.4 µM (inactive) | GI50 (OVCAR-8): 19.4 µM (inactive) | GI50 (SF-268): 18.2 µM (inactive) | GI50 (SF-539): 16.9 µM (inactive) | GI50 (SK-MEL-28): 16.3 µM (inactive) | GI50 (SK-MEL-2): 18.9 µM (inactive) | GI50 (SK-MEL-5): 19.6 µM (inactive) | GI50 (SN12C): 18.2 µM (inactive) | GI50 (SNB-78): 17.6 µM (inactive) | GI50 (SW-620): 19.1 µM (inactive) | GI50 (UACC-257): 16.2 µM (inactive) | GI50 (UACC-62): 15.2 µM (inactive) | GI50 (XF498): 14.1 µM (inactive)

C=C1CCC2[C@@H](CCC3[C@]2(C)CCC[C@]3(C)C(=O)OC)[C@@H]1CC=O (stereo partly specified)
GI50 (786-0): 36.1 µM (inactive) | GI50 (ACHN): 27.2 µM (inactive) | GI50 (CCRF-CEM): 22.4 µM (inactive) | GI50 (COLO 205): 36.9 µM (inactive) | GI50 (DLD-1): 33.6 µM (inactive) | GI50 (DMS-114): 22 µM (inactive) | GI50 (DMS-273): 22.4 µM (inactive) | GI50 (EKVX): 35.1 µM (inactive) | GI50 (HCC 2998): 61.7 µM (inactive) | GI50 (HCT-116): 16.7 µM (inactive) | GI50 (HCT-15): 29.5 µM | GI50 (HL-60): 23.5 µM (inactive) | GI50 (HOP-18): 24.8 µM (inactive) | GI50 (HOP-92): 20.2 µM (inactive) | GI50 (HT-29): 28.1 µM (inactive) | GI50 (IGROV-1): 35.8 µM (inactive) | GI50 (KM-20L2): 27 µM (inactive) | GI50 (LXFL 529): 31.9 µM (inactive) | GI50 (M14): 19.4 µM (inactive) | GI50 (M19-MEL): 22.4 µM (inactive) | GI50 (Malme-3M): 28.8 µM (inactive) | GI50 (NCI-H226): 27.7 µM (inactive) | GI50 (NCI-H23): 25.8 µM (inactive) | GI50 (NCI-H460): 20 µM (inactive) | GI50 (OVCAR-3): 20.5 µM (inactive) | GI50 (OVCAR-4): 27.6 µM (inactive) | GI50 (OVCAR-8): 23.6 µM (inactive) | GI50 (SF-268): 34.6 µM (inactive) | GI50 (SF-539): 17.9 µM (inactive) | GI50 (SK-MEL-28): 27.7 µM (inactive) | GI50 (SK-MEL-2): 31.6 µM (inactive) | GI50 (SK-MEL-5): 17 µM (inactive) | GI50 (SN12C): 30.3 µM (inactive) | GI50 (SNB-78): 34.4 µM (inactive) | GI50 (SW-620): 17.6 µM (inactive) | GI50 (UACC-257): 26.5 µM (inactive) | GI50 (UACC-62): 24.6 µM (inactive) | GI50 (XF498): 19.9 µM (inactive)
